{"source": "patent US20230085307A1", "about": "“PYRIDAZINONE COMPOUND AND HERBICIDE” (NISSAN CHEMICAL CORPORATION, priority 2019, published 2023)", "key": {"[1]": {"test_system": "late watergrass", "assay": "Test Example 1: herbicidal activity, application before weed generation under submerged conditions (Table 16, symbol A)", "type": "in vivo, late watergrass (Echinochloa oryzicola)", "settings": "320 g/ha applied herbicide", "how_it_was_run": "(§1)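 Emulsion formulation, water-diluted to set dose, was put onto the flooded surface (4 cm depth, alluvial soil) the same day weeds were sown and 2.5-leaf rice transplanted. After 3 weeks at 25-30 °C under glass, each species was rated 0 (≤5% kill) to 5 (≥90% kill).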"}, "[2]": {"test_system": "Japanese bulrush", "assay": "Test Example 1: herbicidal activity, application before weed generation under submerged conditions (Table 16, symbol B)", "type": "in vivo, Japanese bulrush (Schoenoplectus juncoides)", "settings": "320 g/ha applied herbicide", "how_it_was_run": "as §1"}, "[3]": {"test_system": "oval-leafed pondweed", "assay": "Test Example 1: herbicidal activity, application before weed generation under submerged conditions (Table 16, symbol C)", "type": "in vivo, oval-leafed pondweed (Monochoria vaginalis)", "settings": "320 g/ha applied herbicide", "how_it_was_run": "as §1"}, "[4]": {"test_system": "barnyard grass", "assay": "Test Example 3: herbicidal effect by foliage application, Wagner pot (Table 18, symbol H)", "type": "in vivo, barnyard grass (Echinochloa crus-galli)", "settings": "amount of applied herbicide 320 g/ha", "how_it_was_run": "(§2)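 Plants were sown in alluvial soil held under 0.1–0.5 cm standing water and grown 14 days in a greenhouse at 25–30 °C. An emulsifiable formulation, water-diluted to the set dose, was then sprayed onto the foliage, and effects were scored three weeks later using previously defined criteria.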"}, "[5]": {"test_system": "Chinese sprangletop", "assay": "Test Example 3: herbicidal effect by foliage application, Wagner pot (Table 18, symbol D)", "type": "in vivo, chinese sprangletop (Leptochloa chinensis)", "settings": "amount of applied herbicide 320 g/ha", "how_it_was_run": "as §2"}, "[6]": {"test_system": "rice flat sedge", "assay": "Test Example 3: herbicidal effect by foliage application, Wagner pot (Table 18, symbol E)", "type": "in vivo, rice flat sedge (Cyperus iria)", "settings": "amount of applied herbicide 320 g/ha", "how_it_was_run": "as §2"}, "[7]": {"test_system": "southern crabgrass", "assay": "Test Example 4: herbicidal effect by soil treatment (Table 19, symbol F)", "type": "in vivo, southern crabgrass (Digitaria ciliaris)", "settings": "amount of applied herbicide 320 g/ha", "how_it_was_run": "(§3)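 Pre-emergence style soil spray: seeds under ~1.5 cm sterilized diluvial soil received a uniform coat of emulsion diluted to the predetermined herbicide amount. Greenhouse 25–30° C; readout at week three on previously defined criteria.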"}, "[8]": {"test_system": "green foxtail", "assay": "Test Example 4: herbicidal effect by soil treatment (Table 19, symbol G)", "type": "in vivo, green foxtail (Setaria viridis)", "settings": "amount of applied herbicide 320 g/ha", "how_it_was_run": "as §3"}, "[9]": {"test_system": "barnyard grass", "assay": "Test Example 4: herbicidal effect by soil treatment (Table 19, symbol H)", "type": "in vivo, barnyard grass (Echinochloa crus-galli)", "settings": "amount of applied herbicide 320 g/ha", "how_it_was_run": "as §3"}, "[10]": {"test_system": "wild oat", "assay": "Test Example 4: herbicidal effect by soil treatment (Table 19, symbol I)", "type": "in vivo, wild oat (Avena fatua)", "settings": "amount of applied herbicide 320 g/ha", "how_it_was_run": "as §3"}, "[11]": {"test_system": "blackgrass", "assay": "Test Example 4: herbicidal effect by soil treatment (Table 19, symbol J)", "type": "in vivo, blackgrass (Alopecurus myosuroides)", "settings": "amount of applied herbicide 320 g/ha", "how_it_was_run": "as §3"}, "[12]": {"test_system": "Italian ryegrass", "assay": "Test Example 4: herbicidal effect by soil treatment (Table 19, symbol K)", "type": "in vivo, Italian ryegrass (Lolium multiflorum)", "settings": "amount of applied herbicide 320 g/ha", "how_it_was_run": "as §3"}, "[13]": {"test_system": "windgrass", "assay": "Test Example 4: herbicidal effect by soil treatment (Table 19, symbol L)", "type": "in vivo, windgrass (Apera spica-venti)", "settings": "amount of applied herbicide 320 g/ha", "how_it_was_run": "as §3"}, "[14]": {"test_system": "velvetleaf", "assay": "Test Example 4: herbicidal effect by soil treatment (Table 19, symbol M)", "type": "in vivo, velvetleaf (Abutilon theophrasti)", "settings": "amount of applied herbicide 320 g/ha", "how_it_was_run": "as §3"}, "[15]": {"test_system": "redroot pigweed", "assay": "Test Example 4: herbicidal effect by soil treatment (Table 19, symbol N)", "type": "in vivo, redroot pigweed (Amaranthus retroflexus)", "settings": "amount of applied herbicide 320 g/ha", "how_it_was_run": "as §3"}, "[16]": {"test_system": "lambsquarters", "assay": "Test Example 4: herbicidal effect by soil treatment (Table 19, symbol O)", "type": "in vivo, lambsquarters (Chenopodium album)", "settings": "amount of applied herbicide 320 g/ha", "how_it_was_run": "as §3"}, "[17]": {"test_system": "chickweed", "assay": "Test Example 4: herbicidal effect by soil treatment (Table 19, symbol P)", "type": "in vivo, common chickweed (Stellaria media)", "settings": "amount of applied herbicide 320 g/ha", "how_it_was_run": "as §3"}, "[18]": {"test_system": "persian speedwell", "assay": "Test Example 4: herbicidal effect by soil treatment (Table 19, symbol R)", "type": "in vivo, Persian speedwell (Veronica persica)", "settings": "amount of applied herbicide 320 g/ha", "how_it_was_run": "as §3"}, "[19]": {"test_system": "southern crabgrass", "assay": "Test Example 5: herbicidal effect by foliage application, plastic box (Table 20, symbol F)", "type": "in vivo, southern crabgrass (Digitaria ciliaris)", "settings": "foliage application, AAH 320 g/ha, evaluated three weeks after application", "how_it_was_run": "(§4)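 Plants were sown into sterilized diluvial soil under about 1.5 cm cover and kept in a greenhouse at 25° C. to 30° C. Fourteen days on, foliage received an even spray of the diluted emulsion. Herbicidal or crop effect was judged three weeks afterwards.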"}, "[20]": {"test_system": "green foxtail", "assay": "Test Example 5: herbicidal effect by foliage application, plastic box (Table 20, symbol G)", "type": "in vivo, green foxtail (Setaria viridis)", "settings": "foliage application, AAH 320 g/ha, evaluated three weeks after application", "how_it_was_run": "as §4"}, "[21]": {"test_system": "barnyard grass", "assay": "Test Example 5: herbicidal effect by foliage application, plastic box (Table 20, symbol H)", "type": "in vivo, barnyard grass (Echinochloa crus-galli)", "settings": "foliage application, AAH 320 g/ha, evaluated three weeks after application", "how_it_was_run": "as §4"}, "[22]": {"test_system": "wild oat", "assay": "Test Example 5: herbicidal effect by foliage application, plastic box (Table 20, symbol I)", "type": "in vivo, wild oat (Avena fatua)", "settings": "foliage application, AAH 320 g/ha, evaluated three weeks after application", "how_it_was_run": "as §4"}, "[23]": {"test_system": "blackgrass", "assay": "Test Example 5: herbicidal effect by foliage application, plastic box (Table 20, symbol J)", "type": "in vivo, blackgrass (Alopecurus myosuroides)", "settings": "foliage application, AAH 320 g/ha, evaluated three weeks after application", "how_it_was_run": "as §4"}, "[24]": {"test_system": "Italian ryegrass", "assay": "Test Example 5: herbicidal effect by foliage application, plastic box (Table 20, symbol K)", "type": "in vivo, Italian ryegrass (Lolium multiflorum)", "settings": "foliage application, AAH 320 g/ha, evaluated three weeks after application", "how_it_was_run": "as §4"}, "[25]": {"test_system": "velvetleaf", "assay": "Test Example 5: herbicidal effect by foliage application, plastic box (Table 20, symbol M)", "type": "in vivo, velvetleaf (Abutilon theophrasti)", "settings": "foliage application, AAH 320 g/ha, evaluated three weeks after application", "how_it_was_run": "as §4"}, "[26]": {"test_system": "redroot pigweed", "assay": "Test Example 5: herbicidal effect by foliage application, plastic box (Table 20, symbol N)", "type": "in vivo, redroot pigweed (Amaranthus retroflexus)", "settings": "foliage application, AAH 320 g/ha, evaluated three weeks after application", "how_it_was_run": "as §4"}, "[27]": {"test_system": "lambsquarters", "assay": "Test Example 5: herbicidal effect by foliage application, plastic box (Table 20, symbol O)", "type": "in vivo, lambsquarters (Chenopodium album)", "settings": "foliage application, AAH 320 g/ha, evaluated three weeks after application", "how_it_was_run": "as §4"}, "[28]": {"test_system": "chickweed", "assay": "Test Example 5: herbicidal effect by foliage application, plastic box (Table 20, symbol P)", "type": "in vivo, common chickweed (Stellaria media)", "settings": "foliage application, AAH 320 g/ha, evaluated three weeks after application", "how_it_was_run": "as §4"}, "[29]": {"test_system": "persian speedwell", "assay": "Test Example 5: herbicidal effect by foliage application, plastic box (Table 20, symbol R)", "type": "in vivo, Persian speedwell (Veronica persica)", "settings": "foliage application, AAH 320 g/ha, evaluated three weeks after application", "how_it_was_run": "as §4"}}, "data": [{"molecule": "Cc1nn(C)c(=O)c(-c2c(-c3ccc(OC(F)F)cc3)sc3ccc(F)cc23)c1OS(=O)(=O)N(C)C", "note": "[2-310]", "values": [{"measurement": "Herbicidal effect on A: late watergrass (grade 0-5)", "setting": "[1]", "value": "0 (Herbicidal rate of 5% or less (almost no effect))"}, {"measurement": "Herbicidal effect on B: Japanese bulrush (grade 0-5)", "setting": "[2]", "value": "2 (Herbicidal rate of 20% or more and less than 40%)"}, {"measurement": "Herbicidal effect on C: oval-leafed pondweed (grade 0-5)", "setting": "[3]", "value": "0 (Herbicidal rate of 5% or less (almost no effect))"}, {"measurement": "herbicidal effect on H: barnyard grass", "setting": "[4]", "value": "5 (Herbicidal rate of 90% or more (almost completely withered))"}, {"measurement": "herbicidal effect on D: Chinese sprangletop", "setting": "[5]", "value": "4 (Herbicidal rate of 70% or more and less than 90%)"}, {"measurement": "herbicidal effect on E: rice flat sedge", "setting": "[6]", "value": "3 (Herbicidal rate of 40% or more and less than 70%)"}, {"measurement": "herbicidal effect on F: southern crabgrass", "setting": "[7]", "value": "0 (Herbicidal rate of 5% or less (almost no effect))"}, {"measurement": "herbicidal effect on G: green foxtail", "setting": "[8]", "value": "0 (Herbicidal rate of 5% or less (almost no effect))"}, {"measurement": "herbicidal effect on H: barnyard grass", "setting": "[9]", "value": "0 (Herbicidal rate of 5% or less (almost no effect))"}, {"measurement": "herbicidal effect on I: wild oat", "setting": "[10]", "value": "0 (Herbicidal rate of 5% or less (almost no effect))"}, {"measurement": "herbicidal effect on J: blackgrass", "setting": "[11]", "value": "0 (Herbicidal rate of 5% or less (almost no effect))"}, {"measurement": "herbicidal effect on K: Italian ryegrass", "setting": "[12]", "value": "0 (Herbicidal rate of 5% or less (almost no effect))"}, {"measurement": "herbicidal effect on L: windgrass", "setting": "[13]", "value": "0 (Herbicidal rate of 5% or less (almost no effect))"}, {"measurement": "herbicidal effect on M: velvetleaf", "setting": "[14]", "value": "0 (Herbicidal rate of 5% or less (almost no effect))"}, {"measurement": "herbicidal effect on N: redroot pigweed", "setting": "[15]", "value": "0 (Herbicidal rate of 5% or less (almost no effect))"}, {"measurement": "herbicidal effect on O: lambsquarters", "setting": "[16]", "value": "0 (Herbicidal rate of 5% or less (almost no effect))"}, {"measurement": "herbicidal effect on P: chickweed", "setting": "[17]", "value": "3 (Herbicidal rate of 40% or more and less than 70%)"}, {"measurement": "herbicidal effect on R: persian speedwell", "setting": "[18]", "value": "4 (Herbicidal rate of 70% or more and less than 90%)"}, {"measurement": "F: southern crabgrass, herbicidal effect (criteria 0-5)", "setting": "[19]", "value": "0 (Herbicidal rate of 5% or less (almost no effect))"}, {"measurement": "G: green foxtail, herbicidal effect (criteria 0-5)", "setting": "[20]", "value": "5 (Herbicidal rate of 90% or more (almost completely withered))"}, {"measurement": "H: barnyard grass, herbicidal effect (criteria 0-5)", "setting": "[21]", "value": "5 (Herbicidal rate of 90% or more (almost completely withered))"}, {"measurement": "I: wild oat, herbicidal effect (criteria 0-5)", "setting": "[22]", "value": "0 (Herbicidal rate of 5% or less (almost no effect))"}, {"measurement": "J: blackgrass, herbicidal effect (criteria 0-5)", "setting": "[23]", "value": "0 (Herbicidal rate of 5% or less (almost no effect))"}, {"measurement": "K: Italian ryegrass, herbicidal effect (criteria 0-5)", "setting": "[24]", "value": "0 (Herbicidal rate of 5% or less (almost no effect))"}, {"measurement": "M: velvetleaf, herbicidal effect (criteria 0-5)", "setting": "[25]", "value": "5 (Herbicidal rate of 90% or more (almost completely withered))"}, {"measurement": "N: redroot pigweed, herbicidal effect (criteria 0-5)", "setting": "[26]", "value": "5 (Herbicidal rate of 90% or more (almost completely withered))"}, {"measurement": "O: lambsquarters, herbicidal effect (criteria 0-5)", "setting": "[27]", "value": "5 (Herbicidal rate of 90% or more (almost completely withered))"}, {"measurement": "P: chickweed, herbicidal effect (criteria 0-5)", "setting": "[28]", "value": "5 (Herbicidal rate of 90% or more (almost completely withered))"}, {"measurement": "R: persian speedwell, herbicidal effect (criteria 0-5)", "setting": "[29]", "value": "5 (Herbicidal rate of 90% or more (almost completely withered))"}]}]}
